*1 amine or outer side, *2 acyl side, *3 side chain or, on linkers, in order; H or OH if unused. Where a SMILES comes first, the peptide text is derived from it. Bridges are numbered along the chain shown (N, C = ends). X1 = O=C(CCC[*:2])[*:1]
Key:
rats = experiment: Anxiolytic effect, elevated plus-maze assay; type: in vivo
Method: The anxiolytic effect of carbetocin and oxytocin was tested using the elevated plus-maze assay in rats as described in Holmes, A., et al., Behav. Neurosci. 115(5):1129-44, 2001. See also Sahuque, L., et al., Psychopharmacology 186(1):122-132, Berl, 2006; Carvalho, M. C., et al., Braz. Med. Biol. Res. 38(12):1857-66, 2005; and Langen, B., et al., J. Pharmacol. Exp. Ther. 314:717-724, 2005. Alprazolam, a known anxiety drug, was also included in the study. Sixty male, 6-10 week old experimentally naïve rats obtained from the Charles River laboratories were divided into six groups of ten animals each. All animals were maintained in compliance with the standards of the National Research Council and were fed certified rodent diet (Teklad, Madison, Wis.) and water ad libitum. The animals were housed in a dedicated study room with 12 hour light/12 hour dark at RT 18 to 26° C. and 30-70% humidity. Study animals were acclimated to their housing for at least 5 days prior to the first day of dosing. Routes of administration included intracerebroventricular (ICV), intraperitoneal (IP), or intramuscular (IM).
For the anxiolytic study, all groups were dosed by injection with formulations that contained the appropriate API in 0.9% saline solution. Alprazolam was an oral solution dosage form and diluted to the desired concentration in 0.9% saline for the anxiolytic study, Alprazolam Intensol™ Oral Solution (Concentrate) 1 mg/ml (each ml contains 1 mg Alprazolam).
The dosing preparations were administered once to each rat as a bolus. In the ICV administration group, test doses were administered into the lateral ventricle through a port in the already implanted ICV cannula. Testing was conducted 20 minutes after ICV and 30 minutes after IM and IP. The animals were tested for 15 minutes on the maze immediately following transport from the home cage.
The elevated plus maze consisted of a platform with 4 arms, two open and two closed (50×10×50 cm enclosed with an open roof). Rats were tested two at a time and placed by hand in the center of the platform of two separate mazes, at the crossroad of the 4 arms, facing one of the open arms. After fifteen minutes, the first rat was left for a few seconds until the second rat's fifteen minutes was completed. The rats were monitored remotely.
Prior to each rat's test, the plus-maze surfaces and closed sides were cleaned. Rats were handled by gloved hands. The time from removal from the home cage to start of testing was less than 15 seconds. Rats were gently removed from the home cage and placed onto the center square between the open and closed arms, and facing the opposite open arm. The rats were facing away from the experimenter. The experimenter moved away from the maze to an area not visible to the rat(s) and viewed the rat(s) via television monitor. At the end of the test the recorder was stopped and the rat(s) removed from the maze.
The rats were evaluated for time spent in open arm exploration (Open Time), time spent in closed arm exploration (Closed Time) and scored for anxiety according to the percent of time spent in open arm exploration ([time spent in open arms/time spent in open arms+time spent in closed arms×100]) (Open Time %); the absolute time spent in open arm exploration; and the percent of open arm entries ([number of open arm entries/number of open arm entries+number of closed arm entries]×100). The number of total arm entries was used as a measure of overall locomotor activity. The scores were compared to the vehicle controls and to the baseline using one-way ANOVA followed by the appropriate post-hoc test (Bonferroni/Dunnets) and a p<0.05 was considered to be statistically significant.

clinical [1] = conditions: human, in vivo; for Cmax / Tmax / AUC(0-t): inhaled or intranasal
Method: (§2) In this second clinical trial, three concentrations of carbetocin were manufactured based on the formulation disclosed in Table 38 in order to provide a carbetocin dose of 150 μg, 250 μg, and 400 μg. Blood samples for PK analysis of carbetocin and oxytocin levels were collected in EDTA coated blood collection tubes from patients. Aprotinin was immediately added and the samples were centrifuged to obtain plasma samples. Intranasal (IN) formulation of carbetocin were dosed using a 100 μl actuator in 12 healthy, human subjects at three strengths (1.5, 2.5, and 4.0 mg/ml) and compared to intramuscular (IM) dose of Duratocin® (Carbetocin Injection). An additional comparison to the commercially available version of intranasal oxytocin (Syntocinon Spray®) was also conducted. Blood samples were taken periodically between t=0 (predose) and 6 hrs.

[2] = in vivo; cited from earlier work
[3] = human, in vivo, inhaled or intranasal, 150 ug
Method: as §2

clinical [4] = conditions: human, in vivo; for AUC(0-t) / Tmax: inhaled or intranasal
Method: In this human clinical study (cross-over, dose escalating), the intranasal (IN) formulation of carbetocin was administered (a single dose) to 12 healthy human subjects (18-65 years old) at three strengths (150, 300, and 500 μg per dose) and compared to the 50 μg dose of Duratocin® administered by intramuscular injection (IM). Blood samples were taken periodically between t=0 (predose) and 6 hrs after dosing.

in vivo = conditions: rabbit, inhaled or intranasal, 60 ug
Method: In this Example, eight groups of rabbits were dosed with the formulations presented in Table 34; group 1 received intramuscular (IM) carbetocin injection at 30 μg dose, while the remaining 7 groups received the 60 μg doses of intranasal (IN) carbetocin nasal spray formulations.
Briefly, in this rabbit PK study 3, Group 1 represents a control intramuscular injection; Group 2 represents a formulation used for our first human clinical study. […] In context with formulation #5, the design of this experiment is intended to further confirm the effect of CMC-LV on BA.
For this experiment, 25 ml of each intranasal (IN) formulation was prepared. All IN formulations were stored in 3×1 ml aliquots in 1cc amber glass bottles. Also, 400 ml of the intramuscular (IM) formulation was prepared and stored in 3×3 mL aliquots in 3 cc clear glass bottles. All formulations were stored at 2-8° C.

[5] = tested on: tracheal/bronchial epithelial cell membrane inserts (EpiAirway); experiment: Cytotoxicity, LDH assay (apical and basolateral); type: cell-based; conditions: Rabbit Pharmacokinetic Study 3 formulations
Method: (§1) 200 μl of fresh media was gently added to each tissue insert in the 24 well plate and the plate was placed no a shaker table at room temperature for 5 minutes. 150 μl of apical solution was removed from each insert and reserved for a […] dehydrogenase assay. The inserts were then washed with 300 μl of media; 300 μl of new media was added to each insert, the inserts were incubated for 20 minutes at room temperature and the transepithelial electrical resistance was measured.
The inserts are then transferred into a new 24 well plate containing no media and the appropriate amount of media was added to the apical surface in order to total 300 μl. The inserts were then shaken for five minutes at 100 RPM at room temperature. 50-100 μl of the apical media were then removed, placed in […] and kept at 2-8° C. until needed.
The samples were then centrifuged at 1000 rpm for 5 minutes. 2 μl of the supernatant was removed and added to a 96 well plate. 48 μl of media was then used to dilute the supernatant to make a 25× dilution and each sample was assayed in triplicate for LDH loss using a CytoTox 96 Cytotoixcity Assay Kit (Promega Corp., Madison, Wis.).
For analysis of the basolateral media, 50 μl of the reserved 150 μl solution was loaded into a 96 well assay plate and assayed in triplicate.

[6] = tested on: tracheal/bronchial epithelial cell membrane inserts (EpiAirway); experiment: Cell viability, MTT assay; type: cell-based; conditions: Rabbit Pharmacokinetic Study 3 formulations
Method: Cell viability was assessed using an MTT assay kit (MatTek Corp., Ashland, Mass.). MTT concentrate was thawed and diluted with media at a ratio of 2 ml MTT:8 ml media. 300 μl MTT-media mix was added to each well of a 24 well plate. Tissue culture inserts were drained and transferred to the MTT containing well and incubated at 37° C. in the dark for three hours. After incubation, each insert was removed from the plate, and then immersed in the wells of a fresh 24-well plate containing 2 ml extractant solution. The plate was then covered and incubated overnight at room temperature in the dark. The liquid in each insert was then decanted back into the well from which it was taken and the insert was discarded. 50 μl of the exractant solution from each well was then pipetted in triplicate into a 96 well plate and diluted with the addition of 150 μl of fresh extractant solution. The optical density of the samples was then measured at 550 nm on a Spectramax plate reader (Molecular Devices, Sunnyvale, Calif.) using SpectraPro software.

[7] = tested on: tracheal/bronchial epithelial cell membrane inserts (EpiAirway); experiment: Transepithelial electrical resistance (TER); type: cell-based; conditions: Rabbit Pharmacokinetic Study 3 formulations
Method: Tracheal/bronchial epithelial cell membrane inserts (EpiAirway, MatTek Corp., Ashland, Mass.) were received the day before the experiment. Each tissue insert was placed in a well of a 6 well plate which contained 0.9 ml of serum free media and cultured at 37° C. for 24 hours to allow the tissues to equilibrate. The day of the experiment, transepithelial electrical resistance measurements were taken for each insert using a Tissue Resistance Measurement Chamber connected to an Epithelial Voltohmeter (World Precision Instruments, Inc., Sarasota, Fla.).
as §1

[8] = IP route, tested 30 minutes after dosing
[9] = ICV route, tested 20 minutes after dosing
[10] = IM route, tested 30 minutes after dosing

In the case of `Cc1nnc2n1-c1ccc(Cl)cc1C(c1ccccc1)=NC2` [Alprazolam], the “Closed Time” value (rats; [8]) is reported as 116.55, the “Open Time” value (rats; [8]) is reported as 46.07 and the “Open Time (%)” value (rats; [8]) is reported as 27.9%.

With `CC[C@H](C)[C@@H]1NC(=O)[C@H](Cc2ccc(O)cc2)NC(=O)[C@@H](N)CSSC[C@@H](C(=O)N2CCC[C@H]2C(=O)N[C@@H](CC(C)C)C(=O)NCC(N)=O)NC(=O)[C@H](CC(N)=O)NC(=O)[C@H](CCC(N)=O)NC1=O` [Oxytocin] the “Closed Time” value (rats; [9]) was 158.42, the “Open Time” value (rats; [9]) was 17.89 and the “Open Time (%)” value (rats; [9]) was 11.3%. The “Closed Time” value (rats; [10]) was 159.47, the “Open Time” value (rats; [10]) was 14.54 and the “Open Time (%)” value (rats; [10]) was 8.6%.

Molecule `CC[C@H](C)[C@@H]1NC(=O)[C@H](Cc2ccc(OC)cc2)NC(=O)CCCSC[C@@H](C(=O)N2CCC[C@H]2C(=O)N[C@@H](CC(C)C)C(=O)NCC(N)=O)NC(=O)[C@H](CC(N)=O)NC(=O)[C@H](CCC(N)=O)NC1=O` [carbetocin, 1-butanoic acid-2-(O-methyl-L-tyrosine)-1-carbaoxytocin] (Y(Me)IQNCPLG-NH2; linker N-5 via X1 (inferred)) has a bioavailability (clinical [1]; 150 ug) of 7%, a bioavailability (clinical [1]; 250 ug) of 6% and a bioavailability (clinical [1]; 400 ug) of 7%. For the same molecule, the Cmax (clinical [1]; 150 ug) was 0.222 ng/mL, the Tmax (clinical [1]; 150 ug) was 15 min and the AUC(0-t) (clinical [1]; 250 ug) was 0.302 ng·h/mL. For the same molecule, the Cmax (clinical [1]; 250 ug) was 0.377 ng/mL, the Tmax (clinical [1]; 250 ug) was 18 min and the AUC(0-t) (clinical [1]; 400 ug) was 0.542 ng·h/mL. For the same molecule, the Cmax (clinical [1]; 400 ug) was 0.608 ng/mL, the Tmax (clinical [1]; 400 ug) was 13 min and the “half-life relative to that of oxytocin” value [2] was 4-10 times. For the same molecule, the AUClast [3] was 13697 (121) min*pg/ml, the Cmax (clinical [4]; 150 ug) was 0.32 ng/mL and the half-life (clinical [4]; 150 ug) was 33 min. It also gave a Cmax (clinical [4]; 300 ug) of 0.43 ng/mL, a half-life (clinical [4]; 300 ug) of 46 min and a Cmax (clinical [4]; 500 ug) of 0.74 ng/mL. It also gave a half-life (clinical [4]; 500 ug) of 42 min, a bioavailability (clinical [4]; im, Bioavailability) of 6% and an AUC(0-t) (clinical [4]; 150 ug) of 0.2 ng·h/mL. The AUC(0-t) (clinical [4]; 300 ug) was 0.25 ng·h/mL, the Tmax (clinical [4]; 300 ug) was 10 min and the AUC(0-t) (clinical [4]; 500 ug) was 0.717 ng·h/mL. For the same molecule, the Tmax (clinical [4]; 500 ug) was 18.6 min and the F rel (in vivo) was about 9%.

With Triton the “Apical LDII %” value ([5]; apical) was 100.0%, the “Basolateral LDH %” value ([5]; basolateral) was 100.0% and the MTT % [6] was 1.4%. The “TER T = 0” value ([7]; T = 0) was 504.4 ohm × cm^2 and the “TER T = 60 min” value ([7]; T = 60 min) was 0.2 ohm × cm^2.
